According to patent publication US20160367497A1, “METHODS AND COMPOSITIONS FOR TREATING NEUROPATHIES” (Washington University, priority 2007, published 2016):

Tests used:
[1] = system: DRG neuronal explant cultures; test: in vitro Wallerian degeneration assay, DRG explant neurite transection; type: cell-based, mouse; conditions: for neurite protection after transection: 1 mM applied for 24 hours before neurite transection; for increase in intact neurites at 48 hours after transection: 1 mM exogenous application for 24 hours
Method: To identify the mechanism of delayed axonal degeneration mediated by the Wlds protein, we employed an in-vitro Wallerian degeneration model. Primary DRG explant neurons were infected with lentivirus expressing the appropriate proteins, and axons were injured by either removal of the neuronal cell body (transection) or growth in vincristine (toxic).
Mouse DRG explants from E12.5 embryos were cultured in the presence of 1 nM nerve growth factor. Non-neuronal cells were removed from the cultures by adding 5-fluorouracil to the culture medium. Transection of neurites was performed at 10-20 DIV using an 18-gauge needle to remove the neuronal cell bodies. Incubation with β-nicotinamide adenine dinucleotide (Sigma) or Sirtinol (Calbiochem) was performed using conditions indicated in the text or figures.
Quantitative analysis of axonal degeneration was performed as previously described (Zhai, et al., Neuron 39:217-25, 2003). Briefly, the cultures were examined using phase contrast microscopy at the indicated times. Axons with a fragmented, non-refractile appearance were designated as “degenerated.” At each time point, at least 200 singly distinguishable axons were blindly scored from several randomly taken images of each culture. Each condition was tested in triplicate explants in each experiment. Results were obtained from 2-4 independent experiments for each condition. Statistical analysis was performed by Student's T test. For calculations of neurite-covered area, digitally captured images from quadruplicate samples of two independent experiments were analyzed using analysis 3.1 software (Soft Imaging System, Lakewood, Colo.).
Cell culture, in vitro axotomy, and quantification of axonal degeneration. Mouse DRG explants from E12.5 embryos were cultured in the DMEM containing 10% FCS and 1 nM nerve growth factor. Non-neuronal cells were removed from the cultures by adding 5-fluorouracil to the culture media. Transection of neurites was performed at 14-21 DIV using an 18-gauge needle to remove the neuronal cell bodies. Lentiviral expression vectors were generated. Lentiviral infection was performed 3-7 days prior to axonal transection for 24 hr. Quantitative analysis of neurite degeneration was performed.

[2] = system: optic nerve (retinal ganglion cell axons); test: optic nerve transection after intravitreal injection, neurofilament Western blot; type: in vivo, rat; conditions: 24 hours before transection, 4 days after transection
Method: FIG. 9 illustrates optic nerve transection after intravitreal injection of NAD biosynthetic substrates NAD, NMN, NmR, or Nam was injected into intravitreal compartment of left rat eye and allowed to incorporate retinal ganglion cells for 24 hours after which, left optic nerve was transected by eye enucleation and right and left optic nerves were collected at 4 days after transection and analyzed by Western blotting in which optic nerves transected from […] without any treatment prior to axotomy were used for negative control; showing in the figure, the quantitative analysis data of percentage of remaining neurofilament immunoreactivity from transected optic nerve relative to non-transected±S.D.
Administration of NAD biosynthetic substrates and optic Nerve transection. Nam, NMN, NmR, or NAD was dissolved in PBS at the concentration of 100 mM or 1 M. Each of 5 μl solution was injected into left intravitreal component under the anesthesia at a rate of […]. The left optic nerve was transected at 24 hours after intravitreal injection and optic nerve was recovered at indicated time. Optic nerve tissue was homogenized in 100 μl of a buffer containing 100 mM tris-HCl (pH 6.8), 1% SDS, and 1 mM DTT. Fifty μg of protein for each sample was analyzed by the Western blotting using anti-neurofilament antibody 2H3 (Developmental Studies Hybridoma Center) and peroxidase-conjugated secondary antibody (Jackson ImmunoResearch). The degeneration rate was calculated from the ratio of the neurofilament immunoreactivity of transected vs. contralateral nerves.
Transection of optic nerve is an in vivo model which can be used to investigate mechanisms leading to Wallerian degeneration and following retinal ganglion cell (RGC) death observed in human diseases such as glaucoma. In the C57BL/Wlds mouse strain, optic nerve degeneration during Wallerian degeneration after axotomy is dramatically slowed. In addition, intravitreal injection is used for screening of compounds that protect RGC axon from degeneration in vivo and thus we can asses the axon protective effect of each NAD biosynthetic substrates in vive by intraocular injection of compounds including NAD, NMN, NmR, and Nam. From in vitro Wallerian degeneration assay, 1 mM of NAD, NMN, and NmR in the culture media is enough to protect axon from degeneration. We initially injected 5 μl of 100 mM or 1 M NAD solution into left intravitreal compartment. After 24 hours incubation, left optic nerve was transected and control (right) and axotomized (left) optic nerve were collected at 3, 4, and 5 days after transection. Neurofilament immunoreactivity from the axotomized optic nerve was measured and normalized against the value obtained from the right side of the optic nerve.

neuro2A cells [3] = test: neurite outgrowth in Neuro2a cells; type: cell-based
Method: FIG. 11A-D illustrates the resveratrol and AICAR stimulation of neurite outgrowth in Neuro2a cells. Neuro2a cells were switched to serum-starvation medium (medium containing 0.2% FCS) and treated with DMSO (vehicle control), resveratrol (10 μM) or AICAR (1 mM). (A) Serum deprivation of Neuro2a cells results in growth of short neurites that increase in length over 72 h. (B) Resveratrol induced rapid neurite outgrowth resulting in elaborate neurite network formation by 48 h. (C) AICAR stimulated extensive neurite outgrowth similar to that observed with resveratrol. (D).
FIG. 12A-M illustrates the dependency of resveratrol-induced neurite outgrowth and mitochondrial biogenesis on AMPK. Neuro2a cells were infected with lentivirus expressing GFP only (FUGW, control), dominant negative AMPK (dnAMPK) or constitutively active AMPK (caAMPK). Three days later cells were shifted to serum-starvation medium containing DMSO (control) or resveratrol (10 μM). In addition, uninfected Neuro2a cells in serum-starvation medium were treated with resveratrol alone, the AMPK inhibitor Compound C (CC, Biomol International L.P. (Plymouth Meeting, Pa.)) (10 μM) alone or with resveratrol and CC together. Images of the cultures captured in bright field and green fluorescence were overlaid to visualize neurite outgrowth. […] Neurite length in cells treated with caAMPK+resveratrol is also shown (G). […] Values were normalized to the 18S transcript. Data shown is representative of two independent experiments.
Cell culture and Reagents. Neuro2 cells obtained from ATCC were grown in MEM with 1.5 g/L sodium bicarbonate, 0.1 mM nonessential amino acids, 0.1 mM sodium pyruvate, 2 mM L-glutamine with 10% FCS. For differentiation, cells were switched to serum-starvation medium (containing 0.2% FCS). For neurite outgrowth measurements, experiments were done in quadruplicate and 100 neurites per well were randomly measured using the Metamorph software. Dorsal root ganglia sensory and cortical neurons were established from E13.5 mouse embryos, maintained in neurobasal medium supplemented with B27 (and NGF for DRG neurons) and infected with lentiviruses as described (Araki et al., 2004, Science 305:1010-1013; Hawley et al., 2005, Cell Metab 2:21-23). Resveratrol was a gift from Sirtris Pharmaceuticals (Cambridge Mass.) and AICAR was obtained from Toronto Research (North York, Canada). Splitomycin and Compound C were purchased from Biomol (Plymouth Meeting, Pa.) and Calbiochem (San Diego, Calif.). Sirtinol and nicotinamide were purchased from Sigma (Saint Louis, Mo.)
Neuro2a cells are a widely used as in vitro model of neuronal differentiation. These cells cease to proliferate and begin to differentiate, as evidenced by neurite outgrowth, in response to serum starvation, retinoic acid, or growth factors like neurotrophins and GDNF family ligands. […] Neuro2a cells grown under serum starvation conditions (0.2% fetal calf serum) were treated with AICAR (1 mM) or resveratrol (10 μM).
Since resveratrol activated AMPK and altered the differentiation of Neuro2a cells, we next asked whether AMPK activity was required for resveratrol-induced neurite outgrowth. To address this issue, we infected Neuro2a cells with lentivirus expressing either GFP alone (FUGW-control) or dominant negative AMPK (dnAMPK). After 3 days growth to allow robust lentiviral transgene expression, the medium was replaced with serum starvation medium. […] Resveratrol-induced neurite outgrowth was reduced in the presence of the AMPK pharmacological inhibitor Compound C (CC 10 μM) further supporting the importance of AMPK activity for resveratrol-induced neurite outgrowth.

[4] = system: Tfam, PGC-1α and MFN2 mRNA; test: mitochondrial biogenesis markers, quantitative RT-PCR in Neuro2a cells; type: cell-based; conditions: with resveratrol 10 μM; Compound C 10 μM or dominant negative AMPK expression
Method: Three days later cells were shifted to serum-starvation medium containing DMSO (control) or resveratrol (10 μM). In addition, uninfected Neuro2a cells in serum-starvation medium were treated with resveratrol alone, the AMPK inhibitor Compound C (CC, Biomol International L.P. (Plymouth Meeting, Pa.)) (10 μM) alone or with resveratrol and CC together. […] Values were normalized to the 18S transcript. Data shown is representative of two independent experiments.
Protein and mRNA analysis. […] Quantitative RT-PCR analysis was performed using Sybr-Green methodology on a model 7700 instrument (Applied Biosystems) as previously described (Araki et al., 2004, Science 305:1010-1013).
We treated Neuro2a cells for 3d with either DMSO (control) or resveratrol (10 μM) in the presence or absence of the AMPK inhibitor Compound C (10 μM). We assessed mitochondrial biogenesis by monitoring mRNA levels of mitofusin 2 (MFN2), a mitochondrial protein and marker of mitochondrial mass and two key regulators of mitochondrial biogenesis, peroxisome proliferator activated receptor γ coactivator 1α (PGC1α) and mitochondrial transcription factor A (Tfam) (Kelly, et al., 2004, Genes Dev 18:357-368).

DRG neurons = test: axonal injury of DRG neurons after hypoxia and reoxygenation; type: cell-based; conditions: preincubation 45 min or lentiviral expression; 0.1% O2 8 or 16 hrs, 20 hrs reoxygenation
Method: FIG. 18 illustrates that activation of AMPK protects axons while inhibition of AMPK function enhances axonal injury during oxygen deprivation.
To examine whether AMPK activation prior to hypoxic stress protects axons from injury, either constitutively active AMPK (CaAMPK) was expressed in DRG neurons, or neurons were preincubated with the AMPK activator AICAR for 45 min prior to hypoxia. […] Thus, treatments that increase AMPK activity (e.g. resveratrol, AICAR) can block the axonal damage and are neuroprotective.

neuro2A cells [5] = test: cellular ATP levels, luciferase-based assay in neuro2A cells; type: cell-based; conditions: 2 hr
Method: To explore the role of polyphenols, in particular, of resveratrol, we tested whether resveratrol altered the activity of AMPK in neuronal cells. Neuro2a neuroblastoma cells were treated with resveratrol (10 μM) and AMPK activation was examined using phospho-AMPK specific antibodies. […] To confirm that AMPK activation by resveratrol results in typical AMPK-mediated downstream responses, we monitored phosphorylation of ACC (acetyl Co-A carboxylase), a primary target of activated AMPK. […] To examine a potential mechanism of resveratrol-mediated AMPK activation, we measured cellular ATP levels as a decreased ATP:AMP ratio increases the phosphorylation of AMPK. ATP levels were monitored using a luciferase-based assay in neuro2A cells treated with resveratrol or Oligomycin, an inhibitor of mitochondrial oxidative phosphorylation and therefore ATP production. While the ATP concentration dropped from 5.874 μM in DMSO-treated cells (control) to 0.976 μM in Oligomycin treated cells within 2 hr, the ATP concentration in resveratrol-treated Neuro2a cells was not altered from control either at 2 hr (6.33 μM) or 24 hr (6.42 μM).

SMILES | neurite protection after transection [1] | increase in intact neurites at 48 hours after transection [1] | neurofilament immunoreactivity of axotomized optic nerve, of non-axotomized optic nerve ([2]; 5 μl of 100 mM intravitreal) | also measured
NC(=O)c1cccc(N)c1 [3AB, 3-aminobenzamide, reference compound] |  |  |  | effect on NAD-dependent axonal protection (NDAP) ([1]; neurons cultured in 1 mM NAD, Sirtinol 100 μM, 3AB 20 mM or siRNA lentivirus, 12 to 72 hr after transection): had no effect on NDAP
NC(=O)c1ccc[n+]([C@@H]2O[C@H](CO)[C@@H](O)[C@H]2O)c1 [NmR, nicotinamide riboside] | saved neurites as well as NAD | comparable increase in intact neurites | 72±19% | 
O=C(O)c1cccnc1 [Na, nicotinic acid] | failed to save neurites |  |  | 
NC(=O)c1ccc[n+]([C@@H]2O[C@H](COP(=O)([O-])O)[C@@H](O)[C@H]2O)c1 [NMN, nicotinamide mononucleotide] | successfully saved neurites from degeneration | comparable increase in intact neurites | 60±25% | 
c1cc(-c2cnn3cc(-c4ccc(OCCN5CCCCC5)cc4)cnc23)ccn1 [Compound C] |  |  |  | effect on resveratrol-stimulated neurite outgrowth (neuro2A cells [3]; resveratrol 10 μM, Compound C 10 μM, SIRT1 inhibitors, STO 609 2.5 μM or dnAMPK expression): reduced; neurite growth, inhibitor by itself (neuro2A cells [3]; without resveratrol): did not cause any significant inhibition of neurite growth; effect on resveratrol-induced upregulation of mitochondrial markers [4]: severely diminished; axonal injury (axonal beading) after hypoxia (DRG neurons): severe axonal injury
Nc1ncnc2c1ncn2[C@@H]1O[C@H](COP(=O)(O)OP(=O)(O)OC[C@H]2O[C@@H]([n+]3cccc(C(=O)O)c3)[C@H](O)[C@@H]2O)[C@@H](O)[C@H]1O [NaAD, nicotininc acid adenine dinucleotide] | slight protection | less increase in intact neurites at 48 hours compared with NAD |  | 
CC[C@H]1/C=C/C=C/C[C@@H](C)[C@H](O)[C@@](C)(O)C(=O)[C@@H](C)[C@H](O)[C@@H](C)C(=O)[C@@H](C)[C@H](O)[C@@H](C)/C=C/C(=O)O[C@@H]2[C@H](C)[C@H](CC1)O[C@]1(CC[C@H](C)[C@H](C[C@@H](C)O)O1)[C@H]2C [Oligomycin, reference compound] |  |  |  | ATP concentration (neuro2A cells [5]): 0.976 µM
NC(=O)c1ccc[n+]([C@@H]2O[C@H](COP(=O)([O-])OP(=O)(O)OC[C@H]3O[C@@H](n4cnc5c(N)ncnc54)[C@H](O)[C@@H]3O)[C@@H](O)[C@H]2O)c1 [NAD, nicotinamide adenine dinucleotide] |  |  | 78±22% | neurofilament immunoreactivity of axotomized optic nerve, of non-axotomized optic nerve ([2]; 5 μl of 1 M intravitreal): 77±27%
O=C(O)c1ccc[n+]([C@@H]2O[C@H](COP(=O)(O)O)[C@@H](O)[C@H]2O)c1 [NaMN, nicotinate mononucleotide] | saved neurites as well as NAD | comparable increase in intact neurites |  | 
